Measurements taken from patent US20230113037A1 (Bayer Aktiengesellschaft, priority 2019, published 2023).

Tests used:
AHR [1] = target: T1, AHR (Homo sapiens, UniProt P35869); assay: In vitro assay 1: antagonism in human cell line (AHR transactivation, firefly luciferase reporter, kynurenic acid prestimulated); format: cell-based; conditions: AHR Antagonism Human IC50 [M]
T1 construct: U87 MG glioblastoma cells (ATCC #HTB-14) endogenously expressing AHR; endogenous in cells; host or cells: U87 MG glioblastoma cells (ATCC #HTB-14)
T1 sequence (P35869 11-848): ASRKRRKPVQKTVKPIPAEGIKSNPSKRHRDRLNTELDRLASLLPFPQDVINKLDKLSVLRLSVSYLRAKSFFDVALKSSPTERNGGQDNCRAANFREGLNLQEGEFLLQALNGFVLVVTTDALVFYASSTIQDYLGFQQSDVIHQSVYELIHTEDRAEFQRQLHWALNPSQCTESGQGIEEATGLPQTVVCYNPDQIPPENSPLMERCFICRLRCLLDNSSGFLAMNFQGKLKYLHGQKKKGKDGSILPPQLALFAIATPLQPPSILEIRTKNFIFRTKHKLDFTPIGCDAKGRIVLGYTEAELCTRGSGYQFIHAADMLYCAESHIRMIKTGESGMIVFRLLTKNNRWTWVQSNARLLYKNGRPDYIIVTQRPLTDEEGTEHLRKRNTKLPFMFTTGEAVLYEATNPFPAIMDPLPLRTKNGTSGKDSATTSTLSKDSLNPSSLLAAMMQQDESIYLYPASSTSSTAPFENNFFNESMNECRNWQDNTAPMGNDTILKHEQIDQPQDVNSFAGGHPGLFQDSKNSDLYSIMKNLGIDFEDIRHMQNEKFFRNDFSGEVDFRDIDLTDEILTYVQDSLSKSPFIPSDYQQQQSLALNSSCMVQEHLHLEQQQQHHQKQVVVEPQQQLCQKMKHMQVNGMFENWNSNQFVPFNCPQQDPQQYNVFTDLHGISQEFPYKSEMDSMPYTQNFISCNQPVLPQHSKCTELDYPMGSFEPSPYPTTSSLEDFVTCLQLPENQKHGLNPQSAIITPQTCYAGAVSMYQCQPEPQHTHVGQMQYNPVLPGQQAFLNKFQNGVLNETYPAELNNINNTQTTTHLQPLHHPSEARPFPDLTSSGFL
Procedure, shortened: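 U87 MG glioblastoma cells with endogenous AHR, stably carrying a DRE-driven firefly luciferase reporter and constitutive Renilla reporter, prestimulated with kynurenic acid before compound addition. Firefly and Renilla read by dual luciferase; Renilla flags toxicity; normalized to controls (150 μM kynurenic acid + 5 μM staurosporine as full inhibition); repeat values averaged or median.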

AHR [2] = target: T2, AHR (Mus musculus, UniProt P30561); assay: In vitro assay 3: antagonism in mouse cell line (AHR transactivation, firefly luciferase reporter, kynurenic acid prestimulated); format: cell-based; conditions: mouse Hepa 1c1c7 cells, 200 μM kynurenic acid, 20 hours, read-out: AHR Antagonism Mouse IC50
T2 sequence (P30561 1-848 P471L/N533S/M589L): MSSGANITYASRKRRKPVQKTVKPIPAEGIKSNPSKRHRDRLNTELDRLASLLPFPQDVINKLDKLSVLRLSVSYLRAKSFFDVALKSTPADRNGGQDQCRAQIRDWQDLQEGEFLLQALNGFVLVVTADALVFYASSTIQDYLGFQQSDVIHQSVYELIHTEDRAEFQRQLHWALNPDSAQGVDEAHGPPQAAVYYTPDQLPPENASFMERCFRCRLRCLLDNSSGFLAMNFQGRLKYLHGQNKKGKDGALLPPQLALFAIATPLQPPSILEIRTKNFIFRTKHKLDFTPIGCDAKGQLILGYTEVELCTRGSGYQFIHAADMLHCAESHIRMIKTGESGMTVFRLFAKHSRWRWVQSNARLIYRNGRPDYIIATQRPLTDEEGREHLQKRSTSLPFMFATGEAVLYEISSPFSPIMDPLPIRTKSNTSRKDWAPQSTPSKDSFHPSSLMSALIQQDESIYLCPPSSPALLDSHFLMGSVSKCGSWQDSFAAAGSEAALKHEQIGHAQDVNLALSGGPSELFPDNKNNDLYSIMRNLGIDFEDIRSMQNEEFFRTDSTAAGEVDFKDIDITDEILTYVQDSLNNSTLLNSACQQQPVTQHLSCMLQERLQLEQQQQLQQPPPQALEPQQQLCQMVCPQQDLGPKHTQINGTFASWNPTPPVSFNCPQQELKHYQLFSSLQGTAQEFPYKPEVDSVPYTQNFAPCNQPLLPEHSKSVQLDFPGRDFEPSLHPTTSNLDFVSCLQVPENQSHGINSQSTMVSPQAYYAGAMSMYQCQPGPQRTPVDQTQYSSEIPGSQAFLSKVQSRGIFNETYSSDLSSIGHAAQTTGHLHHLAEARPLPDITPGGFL
Procedure, shortened: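 Cells were first stimulated with kynurenic acid, then exposed to test compound, after which firefly luciferase from a DRE-containing AHR reporter was read out. Signal was scaled between positive and negative controls. Cells not given kynurenic acid provided the inhibition reference.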

SMILES | IC50 (AHR [1]) [M] | IC50 (AHR [2]) [nM]
O=C1NCCCC[C@H]1Nc1nc2ccccc2c2nc(-c3cnn(C(F)F)c3)nn12 [Example 534, (3R)-3-({2-[1-(difluoromethyl)-1H-pyrazol-4-yl][1,2,4]triazolo[1,5-c]quinazolin-5-yl}amino)azepan-2-one] | 2.03e-09 | 0.828
O=C1NCCCC[C@H]1Nc1nc2ccccc2c2nc(-c3cnn(C4CC4)c3)nn12 [Example 535, (3R)-3-{[2-(1-cyclopropyl-1H-pyrazol-4-yl)[1,2,4]triazolo[1,5-c]quinazolin-5-yl]amino}azepan-2-one] | 5.13e-09 | 2.57
Cc1n[nH]c(C)c1-c1nc2c3ccccc3nc(N[C@@H]3CCCCNC3=O)n2n1 [Example 536, (3R)-3-{[2-(3,5-dimethyl-1H-pyrazol-4-yl)[1,2,4]triazolo[1,5-c]quinazolin-5-yl]amino}azepan-2-one] | 8.6e-08 | 94.7
Cc1cscc1-c1nc2c3ccccc3nc(N[C@@H]3CCCCNC3=O)n2n1 [Example 538, (3R)-3-{[2-(4-methylthiophen-3-yl)[1,2,4]triazolo[1,5-c]quinazolin-5-yl]amino}azepan-2-one] | 8.79e-10 | 0.646
COc1ccc(-c2nc3c4ccc(C(F)(F)F)cc4nc(N[C@@H]4CCCCNC4=O)n3n2)cc1 [Example 548, (3R)-3-{[2-(4-methoxyphenyl)-8-(trifluoromethyl)[1,2,4]triazolo[1,5-c]quinazolin-5-yl]amino}azepan-2-one] | 9.46e-07 | 2400
COc1ccc(-c2nc3c4ccc(OC)cc4nc(N[C@@H]4CCCCNC4=O)n3n2)cc1 [Example 549, (3R)-3-{[8-methoxy-2-(4-methoxyphenyl)[1,2,4]triazolo[1,5-c]quinazolin-5-yl]amino}azepan-2-one] | 7.33e-08 | 17400

The next lines start with the values.

IC50 (AHR [1]) [M] | IC50 (AHR [2]) [nM] | SMILES
1.3e-07 | 17.7 | CC[C@H](Nc1nc2ccccc2c2nc(-c3ccc(Br)cc3OC(F)(F)F)nn12)C(N)=O [Example 524, (2S)-2-({2-[4-bromo-2-(trifluoromethoxy)phenyl][1,2,4]triazolo[1,5-c]quinazolin-5-yl}amino)butanamide]
1.47e-08 | 2.33 | O=C1NCCCC[C@@H]1Nc1nc2ccccc2c2nc(-c3ccc(Cl)cc3OC(F)F)nn12 [Example 526, (3S)-3-({2-[4-chloro-2-(difluoromethoxy)phenyl][1,2,4]triazolo[1,5-c]quinazolin-5-yl}amino)azepan-2-one]
9.3e-09 | 6.94 | O=C1NCC[C@H]1Nc1nc2ccccc2c2nc(-c3ccc(Cl)cc3OC(F)F)nn12 [Example 528, (3R)-3-({2-[4-chloro-2-(difluoromethoxy)phenyl][1,2,4]triazolo[1,5-c]quinazolin-5-yl}amino)pyrrolidin-2-one]
3.72e-09 | 3.94 | CCCCNC(=O)[C@H](C)Nc1nc2ccccc2c2nc(-c3ccc(Cl)cc3OC(F)F)nn12 [Example 533, N-butyl-N^2-{2-[4-chloro-2-(difluoromethoxy)phenyl][1,2,4]triazolo[1,5-c]quinazolin-5-yl}alaninamide]
4.31e-09 | 1.9 | O=C1NCCCC[C@H]1Nc1nc2ccccc2c2nc(-c3ccc(Br)o3)nn12 [Example 537, (3R)-3-{[2-(5-bromofuran-2-yl)[1,2,4]triazolo[1,5-c]quinazolin-5-yl]amino}azepan-2-one]
6.16e-08 | 7.71 | Cc1cscc1-c1nc2c3ccccc3nc(N[C@H]3CCCCNC3=O)n2n1 [Example 539, (3S)-3-{[2-(4-methylthiophen-3-yl)[1,2,4]triazolo[1,5-c]quinazolin-5-yl]amino}azepan-2-one]
6.05e-08 | 6.24 | Cc1cscc1-c1nc2c3ccccc3nc(N[C@@H]3CCCNC3=O)n2n1 [Example 540]
3.5e-08 | 631 | Cc1cscc1-c1nc2c3ccccc3nc(N[C@@H]3CCNC3=O)n2n1 [Example 541]
3.55e-09 | 0.565 | CC[C@@H](Nc1nc2ccccc2c2nc(-c3cscc3C)nn12)C(N)=O [Example 542]
